Total strains inhibited data for one compound are collected here from patent US20240390434A1, “PROBIOTIC ENHANCERS AND USES THEREOF” (Blis Technologies Limited, priority 2021, published 2024).

In the experiment the test system is indicator strains. Description: Deferred antagonism assay, producer S. salivarius K12: total strains inhibited. Type of experiment: cell-based. Conditions: K12. The protocol:
1-2 producer strain colonies were transferred from a stock plate into 900 μL of suspension solution using a fresh cotton swab. Following this, suspensions were vortexed, and a sample was inoculated onto solid culture media using a fresh cotton swab. The inoculation was a streak that runs diametrically across the agar plate in a 1.5 cm wide strip. The plate was then incubated. Following incubation all visible colonies were removed by swabbing them from the agar surface. The plates were then treated with chloroform by dispensing 2 ml of chloroform onto 4 cm×4 cm piece of cloth and sealing the inverted agar plate on top for 30 minutes. The plates were then air dried for 30 minutes following chloroforming. 1-2 indicator strain colonies were then transferred from a stock plate into complementary suspension solution. The suspensions were then vortexed, and a sample was inoculated onto the same agar surface. These samples were streaked in a perpendicular direction to the initial producer streak.
Each indicator streak was prepared with fresh a suspension containing cells from a corresponding stock plate containing the indicator strain of interest. Indicator strains suspension samples were transferred using a fresh cotton swab. Results were measured by qualitatively reviewing the subsequent (if any) sizes of the zones of inhibition (ZOI) of indicator strain colony growth. A positive result is when there is a distinctive reduction or complete inhibition of indicator colony growth on the culture medium.
CABCa agar plates containing various concentrations of saccharide were prepared according to the methods described in Method 1. Producer strains were transferred from stock agar plates into 900 μL THB using a fresh cotton swab. A plastic spread plater was cut to approximately 1.2 cm width and then dipped into ethanol and left to air dry to ensure sterility. A 100 μL sample of the producer strain suspension was then dispensed onto the agar surface in a straight line running diametrically across the agar surface in (approximately) 20 μL spots. The spots were spaced approximately 1.5 cm apart from each other. The plastic spreader was then used to evenly distribute the spots across the agar surface in a 1.5 cm wide strip. This step was taken to ensure an even producer streak was inoculated onto the agar surface and provided an approximate measure of the initial inoculum concentration. Separate plastic spreaders were used for samples containing different producer strains. The samples were left to soak into the agar surface until there was no visible liquid remaining on the agar surface (approximately 20 minutes). Following producer streak preparations, the deferred antagonism assay protocol was followed as per Method 2. Results were recorded by measuring the size of the zone of inhibition (ZOI) in mm.
A dose response assay was carried out according to method 3 above, except a 1.2 cm streak was used. For the individual saccharide testing the pH of the producer streak was adjusted after the growth of producer to change the acidic conditions.
A deferred antagonism assay was conducted using K12 or M18 raw ingredient suspended in Todd Hewitt broth (THB). This was spread as a 1.2 cm streak containing approximately 1-2×10^6 cfu down the middle of a CABCa control or CABCa galactose supplemented test plate. After 18 hrs growth at 37° C. with 5% CO2, bacterial growth was removed, and the pH of the agar in the initial streak was measured and adjusted to a pH of 6.5-7.5 using 0.5M sodium carbonate pH11 before sterilizing the agar surface using chloroform vapor. Bacterial test strains were suspended in i-THB before being swabbed across the plates perpendicular to the initial streak. Plates were incubated for a further 18 hrs incubation at 37° C. with 5% CO2 before measuring (mm) any zones of inhibition for each test strain, […]

For `O=C(CO)[C@@H](O)[C@H](O)[C@H](O)CO` [Fructose, D-(−) Fructose, reference compound], the Total strains inhibited by setting is: (saccharide 3.3% w/v) 0/3; (saccharide range 0.83%-3.3% w/v) 0/3.
